# In patent US4277472A, “3,6-Disubstituted-5,7-(lower alkano)-5,6,7,8-tetrahydropyrido(4,3-C)pyridazines; their intermediates, preparation, antihypertensive use and compositions” (Byk Gulden Lomberg Chemische Fabrik GmbH, priority 1978, dated 1981):
# Tests used:
# [1] = tested on: blood pressure of genetically-hypertensive rats; assay: antihypertensive effect in awake genetically-hypertensive rats, oral, once daily on two consecutive days; format: in vivo, rat (Kyoto strain); conditions: for relation between percentage change of the blood pressure (BP) and the applied dose / Th. E. (therapeutic effectiveness) [Serial No. 3 = 1.0]: 24-hour value of the 2nd day; for relation between percentage change of the blood pressure (BP) and the applied dose: dose in μmole/kg; for Th. E. (therapeutic effectiveness) [Serial No. 3 = 1.0]: relative to hydralazine = 1.0
# Experimental: In order to determine the anti-hypertensive effect, the compounds or mixtures are administered once daily by means of an oesophageal sound in the stated doses on two consecutive days to, in each case, 8 rats (Kyoto strain) with genetically-caused hypertension. The blood pressure was measured in each case 6 and 24 hours after administration of the substance.
# (§1) The measurement of the systolic blood pressure is effected with the aid of an inflatable cuff which is placed around the tail root and on which cuff there are arranged distally annularly 3 piezo-electric crystals (at a distance of 120°) for registering the pulse waves. The determination of the blood pressure is effected through inflation of the cuff and graphic recording of the pulse amplitude [analogously to H. Friebel and E. Vreden, Arch. exper. Path. u. Pharmakol., 232, 419 (1958)]. The animals were kept in an ambience of, and the experiments were carried out at from 22° to 24° C. and from 50 to 60 percent atmospheric humidity. In order to accustom the animals to the measuring process, a measurement was effected on the animals in each case 2 to 3 times daily for three days. For this purpose, as in the subsequent experiments, the rats were put into tunnel-shaped wire cages; one narrow side of the cages is slidable, the other has an opening for taking the tail through. In order to ensure a better blood flow through the tail artery during the measurement, the tails are irradiated for from 5 to 10 minutes with a red light lamp (150 watts) (distance: animal-lamp=50 cm). The air temperature immediately ambient to the tail is from 30° to 33° C. The body of the animals is covered and thus protected from direct irradiation.
# (§2) Table I reproduces for the representatives of the compounds according to the invention the percentage lowering of the blood pressure after oral administration in the rat and the lethal effect after oral administration in the mouse.
# % Change of blood pressure (BP) in genetically-hypertensive rats after
# single daily application per os on two consecutive days (N = 8/dose)
# [2] = acute oral toxicity, LD50, mouse; set-up: species or system mouse (NMRI, female); conditions: in vivo, per os, single administration, mice, N = 5/dose, 14 days observation
# Experimental: The toxicity investigations were carried out on female NMRI mice (body weight from 22 to 26 g). The animals (5 animals per dose) receive food and water ad libitum. Different doses of the substances are administered orally. The duration of observation is 14 days. The LD50, i.e. the dose at which 50 percent of the animals die, is determined graphically from the dose effect curve.
# as §2
# and toxicity (per os; LD50) in mice (N = 5/dose)
# [3] = tested on: blood pressure of genetically-hypertensive rats; assay: lowering of blood pressure of genetically-hypertensive rats, oral, once daily on 10 consecutive days; format: in vivo, rat (Kyoto strain); conditions: 6 h after application
# Experimental: as §1
# In Table III there is represented the lowering of the blood pressure of genetically-hypertensive rats in the case of oral application of 3-hydrazino-5,7-propano-5,6,7,8-tetrahydro-6-pyrido[4,3-c]pyridazine carboxylic acid ethyl ester fumarate. In each case 8 animals received the stated dose once daily on 10 consecutive days.
# Lowering of the blood pressure of genetically-hypertensive rats
# (in mm Hg) in the case of administration of different doses of No. 4
# (in mg/kg rat), measured on 10 consecutive days (6 hours after
# application in each case).
# Doses: a = 1.25 mg/kg; b = 2.5 mg/kg; c = 5.0 mg/kg; d = 10.0 mg/kg.
# [4] = 5 mg/kg per os on 2nd day (half of original dose)
# [5] = 5 mg/kg per os on 2nd day (half of original dose), 24 h
structure (smiles),measurement,setting,value
"CCOC(=O)N1C2CCCC1c1cc(NN)nnc1C2 (stereo not shown) [3-hydrazino-5,7-propano-5,6,7,8-tetrahydro-6-pyrido[4,3-c]pyridazine carboxylic acid ethyl ester]","anti-hypertensive effectiveness and duration of action, in words","[1]; awake genetically-hypertensive rats, compared with hydralazine and known compounds",considerably higher anti-hypertensive effectiveness and longer duration of action than hydralazine
"CCOC(=O)N1CCc2nnc(NN)cc2C1 [Serial No. 1, 3-hydrazino-5,6,7,8-tetrahydro-6-pyrido[4,3-c]pyridazine carboxylic acid ethyl ester, reference compound]","BP (% change), 2nd day, 6 h",[1]; [4],-17.5%
same,"BP (% change), 1st day, 6 h",[1]; 10 mg/kg per os,-24.5%
same,"BP (% change), 1st day, 24 h","[1]; 10 mg/kg per os, 24 h",-6.0%
same,relation between percentage change of the blood pressure (BP) and the applied dose,[1],0.404
same,"BP (% change) 2nd day, 24 h","[1]; Table II, dose 21.05 μmole/kg",-8.5%
same,Th. E. (therapeutic effectiveness) [Serial No. 3 = 1.0],[1],8.3
same,LD50 at 336 h,[2],340 mg/kg
"CCOC(=O)N1CCc2nnc(NN)c(C)c2C1.Cl [Serial No. 2, 3-hydrazino-4-methyl-5,6,7,8-tetrahydro-6-pyrido[4,3-c]pyridazine carboxylic acid ethyl ester hydrochloride, reference compound]","BP (% change), 1st day, 6 h",[1]; 20 mg/kg per os,-4.7%
same,"BP (% change), 1st day, 24 h","[1]; 20 mg/kg per os, 24 h",-1.0%
same,"BP (% change), 2nd day, 6 h","[1]; 20 mg/kg per os, 2nd day",-4.7%
same,"BP (% change) 2nd day, 24 h","[1]; 20 mg/kg per os, 2nd day, 24 h",-3.7%
same,relation between percentage change of the blood pressure (BP) and the applied dose,[1],0.046
same,"BP (% change) 2nd day, 24 h","[1]; Table II, dose 79.6 μmole/kg",-3.7%
same,Th. E. (therapeutic effectiveness) [Serial No. 3 = 1.0],[1],0.9
"NNc1nncc2ccccc12 [Serial No. 3, 1-hydrazinophthalazine, reference compound]","BP (% change), 1st day, 6 h",[1]; 20 mg/kg per os,-10.7%
same,"BP (% change), 1st day, 24 h","[1]; 20 mg/kg per os, 24 h",-1.5%
same,"BP (% change), 2nd day, 6 h","[1]; 20 mg/kg per os, 2nd day",-11.8%
same,"BP (% change) 2nd day, 24 h","[1]; 20 mg/kg per os, 2nd day, 24 h",-6.1%
same,relation between percentage change of the blood pressure (BP) and the applied dose,[1],0.0488
same,"BP (% change) 2nd day, 24 h","[1]; Table II, dose 125.0 μmole/kg",-6.1%
same,Th. E. (therapeutic effectiveness) [Serial No. 3 = 1.0],[1],1.0
"CCOC(=O)N1C2CCCC1c1cc(NN)nnc1C2.O=C(O)/C=C/C(=O)O (stereo not shown) [Serial No. 4, 3-hydrazino-5,7-propano-5,6,7,8-tetrahydro-6-pyrido[4,3-c]pyridazine carboxylic acid ethyl ester fumarate]",Lowering of the blood pressure,"[3]; day 1, a = 1.25 mg/kg oral",25.0 mm Hg
same,Lowering of the blood pressure,"[3]; day 1, b = 2.5 mg/kg oral",35.0 mm Hg
same,Lowering of the blood pressure,"[3]; day 1, c = 5.0 mg/kg oral",48.0 mm Hg
same,Lowering of the blood pressure,"[3]; day 1, d = 10.0 mg/kg oral",58.0 mm Hg
same,Lowering of the blood pressure,"[3]; day 2, a = 1.25 mg/kg oral",14.0 mm Hg
same,Lowering of the blood pressure,"[3]; day 2, b = 2.5 mg/kg oral",59.0 mm Hg
same,Lowering of the blood pressure,"[3]; day 2, c = 5.0 mg/kg oral",67.0 mm Hg
same,Lowering of the blood pressure,"[3]; day 2, d = 10.0 mg/kg oral",77.5 mm Hg
same,Lowering of the blood pressure,"[3]; day 3, a = 1.25 mg/kg oral",20.0 mm Hg
same,Lowering of the blood pressure,"[3]; day 3, b = 2.5 mg/kg oral",44.0 mm Hg
same,Lowering of the blood pressure,"[3]; day 3, c = 5.0 mg/kg oral",53.0 mm Hg
same,Lowering of the blood pressure,"[3]; day 3, d = 10.0 mg/kg oral",66.0 mm Hg
same,Lowering of the blood pressure,"[3]; day 4, a = 1.25 mg/kg oral",21.0 mm Hg
same,Lowering of the blood pressure,"[3]; day 4, b = 2.5 mg/kg oral",67.0 mm Hg
same,Lowering of the blood pressure,"[3]; day 4, c = 5.0 mg/kg oral",72.0 mm Hg
same,Lowering of the blood pressure,"[3]; day 4, d = 10.0 mg/kg oral",74.0 mm Hg
same,Lowering of the blood pressure,"[3]; day 7, a = 1.25 mg/kg oral",27.0 mm Hg
same,Lowering of the blood pressure,"[3]; day 7, b = 2.5 mg/kg oral",53.0 mm Hg
same,Lowering of the blood pressure,"[3]; day 7, c = 5.0 mg/kg oral",59.0 mm Hg
same,Lowering of the blood pressure,"[3]; day 7, d = 10.0 mg/kg oral",69.0 mm Hg
same,Lowering of the blood pressure,"[3]; day 8, a = 1.25 mg/kg oral",21.0 mm Hg
same,Lowering of the blood pressure,"[3]; day 8, b = 2.5 mg/kg oral",66.0 mm Hg
same,Lowering of the blood pressure,"[3]; day 8, c = 5.0 mg/kg oral",67.0 mm Hg
same,Lowering of the blood pressure,"[3]; day 8, d = 10.0 mg/kg oral",66.0 mm Hg
same,Lowering of the blood pressure,"[3]; day 9, b = 2.5 mg/kg oral",64.0 mm Hg
same,Lowering of the blood pressure,"[3]; day 9, c = 5.0 mg/kg oral",63.0 mm Hg
same,Lowering of the blood pressure,"[3]; day 9, d = 10.0 mg/kg oral",61.0 mm Hg
same,Lowering of the blood pressure,"[3]; day 10, b = 2.5 mg/kg oral",71.0 mm Hg
same,Lowering of the blood pressure,"[3]; day 10, c = 5.0 mg/kg oral",66.0 mm Hg
same,Lowering of the blood pressure,"[3]; day 10, d = 10.0 mg/kg oral",63.0 mm Hg
same,"BP (% change), 1st day, 6 h",[1]; 2.5 mg/kg per os,-9.0%
same,"BP (% change), 1st day, 24 h","[1]; 2.5 mg/kg per os, 24 h",-11.8%
same,"BP (% change), 2nd day, 6 h","[1]; 2.5 mg/kg per os, 2nd day",-15.9%
same,"BP (% change) 2nd day, 24 h","[1]; 2.5 mg/kg per os, 2nd day, 24 h",-17.1%
same,relation between percentage change of the blood pressure (BP) and the applied dose,[1],1.90
same,"BP (% change) 2nd day, 24 h","[1]; Table II, dose 9.0 μmole/kg",-17.1%
same,Th. E. (therapeutic effectiveness) [Serial No. 3 = 1.0],[1],38.9
same,LD50 at 336 h,[2],400 mg/kg
"CC(C)=NNc1cc2c(nn1)CC1CCCC2N1C(=O)c1ccccc1 (stereo not shown) [Serial No. 5, 6-benzoyl-3-isopropylidenehydrazino-5,7-propano-5,6,7,8-tetrahydropyrido[4,3-c]pyridazine]","BP (% change), 2nd day, 6 h",[1]; [4],-15.2%
same,"BP (% change) 2nd day, 24 h",[1]; [5],-12.8%
same,"BP (% change), 1st day, 6 h",[1]; 10 mg/kg per os,-20.1%
same,"BP (% change), 1st day, 24 h","[1]; 10 mg/kg per os, 24 h",-4.4%
same,relation between percentage change of the blood pressure (BP) and the applied dose,[1],0.87
same,"BP (% change) 2nd day, 24 h","[1]; Table II, dose 14.3 μmole/kg",-12.8%
same,Th. E. (therapeutic effectiveness) [Serial No. 3 = 1.0],[1],17.8
same,LD50 at 336 h,[2],510 mg/kg
"CCOC(=O)N1C2CCC1c1cc(NN=C(C)C)nnc1C2 (stereo not shown) [Serial No. 6, 3-isopropylidenehydrazino-5,7-ethano-5,6,7,8-tetrahydro-6-pyrido[4,3-c]-pyridazine carboxylic acid ethyl ester]","BP (% change), 2nd day, 6 h",[1]; [4],-21.5%
same,"BP (% change) 2nd day, 24 h",[1]; [5],-23.1%
same,"BP (% change), 1st day, 6 h",[1]; 10 mg/kg per os,-23.1%
same,"BP (% change), 1st day, 24 h","[1]; 10 mg/kg per os, 24 h",-20.5%
same,relation between percentage change of the blood pressure (BP) and the applied dose,[1],1.40
same,"BP (% change) 2nd day, 24 h","[1]; Table II, dose 16.5 μmole/kg",-23.1%
same,Th. E. (therapeutic effectiveness) [Serial No. 3 = 1.0],[1],28.7
same,LD50 at 336 h,[2],300 mg/kg
